Some test systems named below: A498 renal; EKVX NSCLC; HCT-15 colon; IGROV1 ovarian; MALME-3M melanoma; NCI-H23 lung; RPMI-8226 leukemia; SK-MEL-5 melanoma; DU-145 prostate.
What all share (assay): inhibition of tumour cell growth, NCI panel, 48 h

Structures are written as SMILES.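 Growth conditions: 96-well plates. Treatment: test compound, 48 hours, 5 concentrations. Analysis: linear interpolation between bracketing concentrations; unreached endpoints set to highest concentration. GI50: concentration for 50% inhibition of growth. TGI: concentration producing complete growth inhibition.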 Bounds are passed on as bounds.

Consider `COC(CN1C(=O)c2cccc3cccc(c23)C1=O)OC`, for which the TGI with A498 renal, in the experiment with EKVX NSCLC, with HCT-15 colon, in the experiment with IGROV1 ovarian, in the experiment with MALME-3M melanoma and in the experiment with NCI-H23 lung was over 100 µM in each case. Also, the TGI in the experiment on RPMI-8226 leukemia and in the experiment on SK-MEL-5 melanoma was over 100 µM each time.
For `Clc1cc2nsnc2c(Cl)n1`, the TGI with A498 renal was over 100 µM; in the experiment with EKVX NSCLC, over 100 µM; in the experiment on HCT-15 colon, 45.6 µM; with IGROV1 ovarian, 86.3 µM; with MALME-3M melanoma, 31.3 µM; in the experiment on NCI-H23 lung it was 39.9 µM. Moreover, the results for the TGI in the experiment on RPMI-8226 leukemia and in the experiment with SK-MEL-5 melanoma were 62.5 µM and 32.7 µM, respectively.
Consider `O=C(/C=C/c1ccccc1)NC1C=Nc2ccc(Cl)cc2NC1=O` (stereo not drawn), for which the TGI in the experiment with A498 renal was over 100 µM; in the experiment with EKVX NSCLC, over 100 µM; with HCT-15 colon, 61 µM; with IGROV1 ovarian, over 100 µM; with MALME-3M melanoma, 85.1 µM; in the experiment on NCI-H23 lung it was over 100 µM. The TGI in the experiment on SK-MEL-5 melanoma came out at 51.6 µM.
For the compound `CCOc1ccc(NC(=O)C(=O)CC(=O)c2c[n+](=O)c3cc(C)c(C)cc3n2[O-])cc1`, the TGI with A498 renal, with EKVX NSCLC, with HCT-15 colon, in the experiment with IGROV1 ovarian, with MALME-3M melanoma and in the experiment with NCI-H23 lung was over 100 µM in each case. In addition, the TGI in the experiment on RPMI-8226 leukemia and in the experiment with SK-MEL-5 melanoma was over 100 µM each time.
Regarding `CN1C(=O)C(C)(C)C2(SC(C)(C)C2(C)C)N(C)C1=S` (stereo not drawn), the TGI with EKVX NSCLC, in the experiment with HCT-15 colon, with IGROV1 ovarian, in the experiment on MALME-3M melanoma, in the experiment with NCI-H23 lung and in the experiment with RPMI-8226 leukemia was over 100 µM each time.
On to `COC1(OC)CCC2C1C1CCC(OC)(OC)C21` (stereo not drawn), for which the TGI with A498 renal, in the experiment with EKVX NSCLC, in the experiment on HCT-15 colon, in the experiment on IGROV1 ovarian, in the experiment with MALME-3M melanoma and in the experiment on NCI-H23 lung was over 50 µM in each case. For the same compound, the TGI in the experiment on RPMI-8226 leukemia and in the experiment with SK-MEL-5 melanoma was over 50 µM in each case.
As for `N#CCCN(CCC#N)c1ccc(/C=C2\N=C(c3cc([N+](=O)[O-])ccc3Cl)OC2=O)cc1`, the TGI in the experiment on A498 renal, in the experiment with EKVX NSCLC, in the experiment with HCT-15 colon, in the experiment on IGROV1 ovarian, in the experiment on MALME-3M melanoma and with RPMI-8226 leukemia was over 100 µM throughout. Further, in the experiment with SK-MEL-5 melanoma, the TGI is 33.4 µM.
Take `CC(C)=CC(=O)C1c2cccc(O)c2C(=O)c2c(O)cc(C)cc21` (stereo not drawn): the TGI in the experiment with A498 renal was 37.3 µM; with EKVX NSCLC, 31.5 µM; in the experiment with HCT-15 colon, 10.6 µM; in the experiment on IGROV1 ovarian, 4.76 µM; in the experiment on MALME-3M melanoma, 7.93 µM; with NCI-H23 lung, 6.55 µM. The values for the TGI with RPMI-8226 leukemia and with SK-MEL-5 melanoma were 30.4 µM and 4.06 µM, respectively.
`O=C1C2C(C(=O)N1OS(=O)(=O)c1ccccc1)N(Cc1ccccc1)C(=O)N2Cc1ccccc1` (stereo not drawn): the TGI in the experiment with A498 renal, in the experiment on EKVX NSCLC, with HCT-15 colon, in the experiment with IGROV1 ovarian, with MALME-3M melanoma and in the experiment with NCI-H23 lung was over 100 µM in each case. Further, the TGI with RPMI-8226 leukemia and with SK-MEL-5 melanoma was over 100 µM each time.
As for `Cc1ccc(N=Nc2ccc(N(CCC#N)CCC#N)cc2C)c(Br)c1`, the TGI in the experiment on A498 renal, with EKVX NSCLC, in the experiment on HCT-15 colon, in the experiment with IGROV1 ovarian, in the experiment on MALME-3M melanoma and with NCI-H23 lung was over 100 µM throughout. Also, the TGI in the experiment with RPMI-8226 leukemia was 35.8 µM; with SK-MEL-5 melanoma it was 56.5 µM.
With `COC(=O)CC1CCN(C#N)CC1CC[N+](=O)[O-]` (stereo not drawn), the TGI in the experiment with A498 renal, with HCT-15 colon, with IGROV1 ovarian, with MALME-3M melanoma, in the experiment with RPMI-8226 leukemia and in the experiment on SK-MEL-5 melanoma was over 100 µM each time.
Regarding `COc1cc2c(cc1OC)-c1c3cc(O)ccc3nn[n+]1CC2`, the TGI in the experiment with EKVX NSCLC, in the experiment with IGROV1 ovarian, in the experiment with NCI-H23 lung, with RPMI-8226 leukemia and in the experiment on SK-MEL-5 melanoma was over 100 µM in each case.
For the compound `CC(C)C/C(CC(=O)CCC(=O)Nc1ccccc1[N+](=O)[O-])=N\NC(=O)c1cc2ccccc2cc1O`, the TGI in the experiment on EKVX NSCLC, in the experiment on HCT-15 colon, in the experiment on IGROV1 ovarian, in the experiment with MALME-3M melanoma, in the experiment on NCI-H23 lung and in the experiment on RPMI-8226 leukemia was over 100 µM each time. In the experiment on SK-MEL-5 melanoma, this compound registered a TGI of 67.5 µM.
For `CCCCCN(CCCCC)CCCNc1c2c(nc3ccc(Cl)cc13)CCCC2`, the GI50 in the experiment on A498 renal was 1720 nM; with DU-145 prostate, 3.71 µM; in the experiment with EKVX NSCLC it was 2780 nM; with HCT-15 colon, 2580 nM; in the experiment with IGROV1 ovarian, 1490 nM; in the experiment on MALME-3M melanoma, 2540 nM. The GI50 in the experiment on NCI-H23 lung is 2120 nM; with RPMI-8226 leukemia, 1980 nM; in the experiment with SK-MEL-5 melanoma, 1820 nM. For the same compound, the TGI in the experiment with A498 renal was 8.94 µM; in the experiment with DU-145 prostate it was 13.4 µM; in the experiment on EKVX NSCLC it was 13.6 µM; in the experiment with HCT-15 colon, 11.1 µM; with IGROV1 ovarian, 5.77 µM; with MALME-3M melanoma, 6.01 µM. Moreover, the TGI in the experiment with NCI-H23 lung worked out at 6.73 µM; in the experiment with RPMI-8226 leukemia, 4.54 µM; in the experiment with SK-MEL-5 melanoma, 3.34 µM.
Take `CCCCCCCCCCCCCCCCCC(CCCCCCCCCCCCCCCCC)OP(=O)(O)O`: the TGI in the experiment with A498 renal, in the experiment on EKVX NSCLC, with HCT-15 colon, with IGROV1 ovarian, in the experiment on MALME-3M melanoma and in the experiment with NCI-H23 lung was over 100 µM in each case. In addition, the TGI in the experiment on RPMI-8226 leukemia and in the experiment with SK-MEL-5 melanoma was over 100 µM throughout.
`Cc1nc2ccccc2c(=O)n1-c1ccccc1I`: the TGI in the experiment with A498 renal, with EKVX NSCLC, in the experiment with HCT-15 colon, in the experiment with IGROV1 ovarian, in the experiment on MALME-3M melanoma and with NCI-H23 lung was over 100 µM throughout. In addition, the TGI in the experiment with RPMI-8226 leukemia and in the experiment with SK-MEL-5 melanoma was over 100 µM in each case.

(Values after PubChem BioAssay (NCI).)
